Entries after “also recorded” stand apart in the source; their conditions may differ.
Assays:
Type in all cases: cell-based
Y331F SfMCT = target: T1, Y331F SfMCT (Syntrophobacter fumaroxidans, UniProt A0LNN5, Y331F); assay: [14C]L-lactate transport competition assay, Y331F SfMCT; conditions: competition of [14C]L-lactate uptake
T1 construct: expressed in transfected cells; host or cells: E. coli JA202, pEXT20-SfMCT-3C-10His mutant plasmid
Experimental: The cultures were grown at 37 °C and 180 r.p.m. in an incubator shaker (Multitron, Infors HT). Protein expression was induced at OD600 ~0.5 by addition of IPTG to a final concentration of 0.25 mM. After 4 h, bacteria were pelleted (5,200 × g, 10 min, room temperature) and resuspended in uptake buffer (20 mM Bis-Tris propane-HCl (pH 6.7), 250 mM KCl) to a bacteria density of OD600 12. […] Furthermore, [3-3 H] propionic acid sodium salt ([^3H]propionate, American Radiolabeled Chemicals, specific activity 30 Ci/mmol), n-[2,3-3 H] butyric acid sodium salt ([^3H]butyrate, American Radiolabeled Chemicals, specific activity 120 Ci/mmol), and [1–14 C] pyruvic acid sodium salt ([^14C]pyruvate, specific activity 0.055 Ci/mmol American Radiolabeled Chemicals) were also used for transport experiments. […] Cpm values of each experiment were normalized with respect to the determined upper plateau value, i.e., the fitted upper plateau value corresponds to 100%. The arithmetic average of three independent experiments was calculated. […] His-tagged transporters were detected using an anti-His5 (Qiagen, catalogue number 34660, primary antibody) at a dilution of 1:3,000 and a goat anti-mouse IgG (H + L) HRP conjugate antibody (Biorad, catalogue number 172-1011, secondary antibody) at a dilution of 1:2,500.

SfMCT [1] = target: T2, SfMCT (Syntrophobacter fumaroxidans, UniProt A0LNN5); conditions: wild-type (WT) SfMCT; competition of [14C]L-lactate uptake
T2 construct: expressed in transfected cells; host or cells: E. coli JA202 (MC4100 glcA::cat lldP::kan), plasmid pEXT20-SfMCT-3C-10His
T2 sequence (A0LNN5 1-412): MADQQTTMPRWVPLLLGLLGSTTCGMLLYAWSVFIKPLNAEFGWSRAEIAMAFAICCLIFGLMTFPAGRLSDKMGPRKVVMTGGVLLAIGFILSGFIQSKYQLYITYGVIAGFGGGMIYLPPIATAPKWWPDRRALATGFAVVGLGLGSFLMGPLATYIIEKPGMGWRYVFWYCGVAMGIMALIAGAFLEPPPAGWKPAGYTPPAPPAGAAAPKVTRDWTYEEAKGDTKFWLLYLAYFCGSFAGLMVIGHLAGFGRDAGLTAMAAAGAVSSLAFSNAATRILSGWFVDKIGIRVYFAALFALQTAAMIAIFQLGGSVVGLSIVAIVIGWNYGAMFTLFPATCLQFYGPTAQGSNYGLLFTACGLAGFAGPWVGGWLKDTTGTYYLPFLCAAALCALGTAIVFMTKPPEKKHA
Experimental: The cultures were grown at 37 °C and 180 r.p.m. in an incubator shaker (Multitron, Infors HT). Protein expression was induced at OD600 ~0.5 by addition of IPTG to a final concentration of 0.25 mM. After 4 h, bacteria were pelleted (5,200 × g, 10 min, room temperature) and resuspended in uptake buffer (20 mM Bis-Tris propane-HCl (pH 6.7), 250 mM KCl) to a bacteria density of OD600 12. […] Furthermore, [3-3 H] propionic acid sodium salt ([^3H]propionate, American Radiolabeled Chemicals, specific activity 30 Ci/mmol), n-[2,3-3 H] butyric acid sodium salt ([^3H]butyrate, American Radiolabeled Chemicals, specific activity 120 Ci/mmol), and [1–14 C] pyruvic acid sodium salt ([^14C]pyruvate, specific activity 0.055 Ci/mmol American Radiolabeled Chemicals) were also used for transport experiments. […] Uptake experiments were performed in 2 ml reaction tubes (Eppendorf) at 30 °C under agitation (1,000 r.p.m., Thermomixer compact, Eppendorf). […] Bacteria were immediately pelleted by centrifugation (21,000 × g, 4 min, room temperature) and washed two times with 900 μl stop buffer. Finally, bacteria were lyzed in 50 μl 5% (w/v) sodium dodecylsulfate and transferred into a white 96-well plate (Optiplate, PerkinElmer). 150 µl of scintillation cocktail (MicroScint 40, PerkinElmer) were added before measuring each reaction for 2 min with a scintillation counter (TopCount NXT, PerkinElmer). For data analysis, the signal of the empty vector was subtracted from the transporter signal. […] Cpm values of each experiment were normalized with respect to the determined upper plateau value, i.e., the fitted upper plateau value corresponds to 100%. The arithmetic average of three independent experiments was calculated. Three independent and normalized pH-dependence curves were then averaged. For data analysis Prism6 (GraphPad Software) was used. […] Equal amounts of bacteria expressing SfMCT variants were loaded on 14% SDS/polyacrylamide gels. His-tagged transporters were detected using an anti-His5 (Qiagen, catalogue number 34660, primary antibody) at a dilution of 1:3,000 and a goat anti-mouse IgG (H + L) HRP conjugate antibody (Biorad, catalogue number 172-1011, secondary antibody) at a dilution of 1:2,500.

SfMCT [2] = target: T2, SfMCT; assay: Micro pH electrode-based transport assay, SfMCT-expressing E. coli JA202; conditions: 10 mM compound (pH 6.5) added to bacterial suspension pH 6.7
Experimental: A measuring set up as previously reported[18] was used for micro pH electrode-based transport measurements. SfMCT was expressed in E. coli JA202 (MC4100 glcA::cat lldP::kan)[15] as described for uptake experiments. After expression, bacteria were pelleted (5,200 × g, 10 min, room temperature), washed twice in assay solution (250 mM KCl, 1 mM MgSO4, 2 mM CaCl2; 5,200 × g, 10 min, room temperature) and finally resuspended in assay solution to a bacterial density of OD600 15. Compounds that were assayed for proton-coupled transport were dissolved in assay solution and the pH was adjusted to 6.5. 800 µl of bacteria suspension were transferred into a 2 ml reaction tube (Eppendorf) and the pH value of the bacterial suspension (extracellular medium) was measured using a micro pH electrode with integrated temperature sensor (InLab Micro Pro, Mettler Toledo) under constant stirring. The pH of the bacterial suspension was adjusted to pH 6.7 using potassium hydroxide and hydrochloric acid. The SevenCompact pH-meter (Mettler Toledo), together with LabX direct pH 2.3 software (Mettler Toledo), were used for automatic recording in 15 s intervals. Measurements were initiated by adding 10 mM of the corresponding compound to the bacterial suspension. All experiments were performed at 24 °C.

T1 sequence (A0LNN5 whole entry Y331F): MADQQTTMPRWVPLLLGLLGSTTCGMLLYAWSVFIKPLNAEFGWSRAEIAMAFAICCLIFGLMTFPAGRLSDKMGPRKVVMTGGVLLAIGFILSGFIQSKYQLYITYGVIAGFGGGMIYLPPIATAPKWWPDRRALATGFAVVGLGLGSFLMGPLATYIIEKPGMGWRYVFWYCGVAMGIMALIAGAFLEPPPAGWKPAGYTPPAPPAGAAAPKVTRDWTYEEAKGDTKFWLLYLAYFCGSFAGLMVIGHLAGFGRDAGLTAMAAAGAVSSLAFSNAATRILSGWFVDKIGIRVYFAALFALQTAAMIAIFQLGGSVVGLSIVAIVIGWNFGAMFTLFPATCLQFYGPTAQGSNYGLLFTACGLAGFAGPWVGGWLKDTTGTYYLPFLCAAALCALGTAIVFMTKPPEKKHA

`O=C(O)c1ccccc1S` [TSA, thiosalicylate] was tested, and the Ki (Y331F SfMCT) was 1380 µM, the Ki (SfMCT [1]) was 120 µM and the “proton-coupled transport, change of extracellular pH (in words)” value (SfMCT [2]) was “not a substrate; also recorded: not transported”.

— publication PMC6573034 (Nature Communications, 2019)
